How the values were obtained:
Lxrβ-LBD = biological target: T1, Lxrβ-LBD (Homo sapiens, UniProt P55055); assay: LanthaScreen TR-FRET Lxrβ coactivator assay; type: binding
T1 construct: purchased Invitrogen
T1 sequence (P55055 222-460 limits assumed): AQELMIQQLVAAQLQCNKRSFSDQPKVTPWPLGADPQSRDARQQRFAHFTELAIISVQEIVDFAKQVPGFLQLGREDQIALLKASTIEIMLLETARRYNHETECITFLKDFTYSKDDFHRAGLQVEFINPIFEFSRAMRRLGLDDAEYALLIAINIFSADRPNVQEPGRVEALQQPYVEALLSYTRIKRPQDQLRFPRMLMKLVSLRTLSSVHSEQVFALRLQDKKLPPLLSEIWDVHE
Text: Lxrβ Ligand Binding Assay. For Lxrβ ligand binding activity measurement, the applicants used the LANTHASCREEN™ TR-FRET Lxrβ Coactivator Assay (Invitrogen). The assay uses a terbium (Tb)-labeled anti-GST antibody, a fluorescein-labeled coactivator peptide and the Lxrβ-LBD tagged with glutathione-S-transferase (GST). Binding of the agonist/ligand to Lxrβ-LBD causes a conformational change that result in an increase in the affinity of the Lxrβ for the coactivator peptide. The close proximity of the fluorescently labeled coactivator peptide to the Tb-labeled antibody causes an increase in the TR-FRET signal intensity. The TR-FRET ratio of 520/495 was calculated using a Victor multi label reader with an excitation wavelength of 340 nm and emission wavelengths of 520 nm and 495 nm. The activational capacity of potential ligands was tested in a […] polypropylene plate, following the manufacturer's protocol.

[1] = test system: Abca1, Abcg1 and Srebf1 transcript levels; assay: Quantitative PCR of Lxr target genes in SN4741 cells; type: cell-based, mouse; settings: SN4741 cells treated 3 h
Description: Quantitative PCR. Total RNA was extracted from SN4741 cells and zebrafish treated with the compounds of interest using the RNeasy Mini Kit (Qiagen), 1 μg was treated with RQ1 RNase-free DNase (Promega) and reverse transcribed using Superscript II Reverse Transcriptase (Invitrogen) and random primers (Invitrogen) (RT+ reaction). Parallel reactions without reverse transcriptase enzyme were done as a control (RT− reaction), and Sybergreen real-time quantitative PCR assays were performed. Expression levels were obtained by normalization with the value of the housekeeping gene encoding actin obtained for every sample in parallel assays.

Lxrβ = biological target: T2, Lxrβ (Homo sapiens, UniProt P55055); assay: Lxr-responsive luciferase reporter assay (Lxre + Lxrβ) in SN4741 neural cells; type: cell-based, mouse; settings: for Lxrβ activation, luciferase activity: SN4741 cells, 10 μM, 24 h; for Lxrβ activational capacity in combination with 22R-HC: acid 10 μM + 22R-HC 10 μM
T2 construct: expressed in transfected cells; host or cells: SN4741 mouse neuronal cell line
T2 sequence (P55055 1-460): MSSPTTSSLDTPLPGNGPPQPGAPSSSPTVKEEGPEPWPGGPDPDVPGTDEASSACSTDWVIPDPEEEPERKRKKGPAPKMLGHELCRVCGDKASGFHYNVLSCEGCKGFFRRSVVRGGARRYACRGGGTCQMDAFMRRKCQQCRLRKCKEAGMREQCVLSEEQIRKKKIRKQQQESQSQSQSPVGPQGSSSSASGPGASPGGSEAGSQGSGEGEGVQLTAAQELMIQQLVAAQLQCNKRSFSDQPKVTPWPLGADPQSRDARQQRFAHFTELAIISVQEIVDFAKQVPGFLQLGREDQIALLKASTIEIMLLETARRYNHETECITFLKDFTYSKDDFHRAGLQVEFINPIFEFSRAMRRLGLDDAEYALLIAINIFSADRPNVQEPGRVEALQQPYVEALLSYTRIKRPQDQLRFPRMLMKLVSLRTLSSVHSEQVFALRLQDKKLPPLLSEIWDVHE
Text: (§1) Luciferase Reporter Assay.

Lxrα = biological target: T3, Lxrα (Homo sapiens, UniProt Q13133); assay: Lxr-responsive luciferase reporter assay (Lxre + Lxrα) in SN4741 neural cells; type: cell-based, mouse; settings: 10 μM, 24 h
T3 construct: expressed in transfected cells; host or cells: SN4741 mouse neuronal cell line
T3 sequence (Q13133 1-447): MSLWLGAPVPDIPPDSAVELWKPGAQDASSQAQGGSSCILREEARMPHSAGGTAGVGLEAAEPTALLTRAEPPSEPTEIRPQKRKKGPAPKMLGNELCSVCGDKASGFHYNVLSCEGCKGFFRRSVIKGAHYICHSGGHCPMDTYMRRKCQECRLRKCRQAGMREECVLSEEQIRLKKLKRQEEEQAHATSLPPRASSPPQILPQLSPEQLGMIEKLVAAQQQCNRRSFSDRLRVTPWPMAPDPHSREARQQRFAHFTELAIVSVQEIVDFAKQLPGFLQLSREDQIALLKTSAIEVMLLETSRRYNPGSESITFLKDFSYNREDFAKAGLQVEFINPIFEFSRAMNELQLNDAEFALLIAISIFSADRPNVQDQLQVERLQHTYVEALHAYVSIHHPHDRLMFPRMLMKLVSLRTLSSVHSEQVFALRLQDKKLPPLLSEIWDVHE
Text: as §1

[2] = test system: Islet1+ oculomotor neurons; assay: In utero injection into the cerebral aqueduct of E11.5 mice, analysis at E13.5; type: in vivo, mouse
Text: Animals for in-utero injections and tissue preparation. Female wild-type CD-1 mice (25-35 g; Charles River Breeding Laboratories) were housed, bred, and treated according to the guidelines of the European Communities Council (directive 86/609/EEC) and the Society for Neuroscience (www.sfr.org), and all experiments were approved by the local ethical committee. Ethical approval for CD-I mice experimentation was granted by Stockholm Norra Djurforsoksetisks Namnd number N1 54/06, N273/11 and N370/09. For embryo analyses, wild type CD-I mice were mated overnight, and noon of the day the plug was considered E0.5. Embryos were dissected out of the uterine horns in ice-cold PBS, fixed in 4% paraformaldehyde (PFA) for 4 h to overnight, cryoprotected in 15-30% sucrose, frozen in Tissue-Tek Optimum Cutting Temperature (OCT) compound (Sakura Fine-Tek) on dry ice, and stored at −80° C. until use. Serial coronal 14-μπι sections of the brain were obtained on a cryostat.
Immunohistochemical analysis of sections. Ten sets of 14 μπι serial coronal sections were cut on a cryostat. No. 1 and 6 sets were subjected to immunohistochemistry. Sections were pre-incubated for 1 h in blocking solution followed by incubation at 4° C. overnight with following primary antibodies: anti-TH (1:750, Pel-Freeze), anti-Islet-1 (1:100; Developmental Studies Hybridoma Bank), anti-cleaved caspase-3 (Aspl175) (1:100; Cell Signaling Technology). After washing, slides were incubated for 1-2 h at room temperature with the appropriate fluorophore-conjugated (Cy2-, Cy3- and Cy5-, 1:300, Jackson Laboratories; Alexa488-, 555-, and 647-, 1:1000, Invitrogen) secondary antibodies. Confocal pictures were taken with a Zeiss LSM5 Exciter or LSM700 microscope.
In utero intraventricular injections. E11.5 pregnant females were deeply anesthetized using Isofluorane (ISOFLO®, Abbott Labs) and the uterine horns were accessed through an abdominal incision. 1 μL of the different cholestenoic acids studied (5 mM) or vehicle solution (isopropanol, 50% v/v) was injected into the cerebral aqueduct. The uterine horns were replaced into the abdominal cavity, which was then closed with sutures. Embryos were analyzed 48 h later.

[3] = 1 μL of 5 mM injected at E11.5, analysed at E13.5

| Structure (SMILES) | TR-FRET induction (coactivator recruitment to Lxrβ-LBD) (Lxrβ-LBD; dose response) | Abca1, Abcg1 and Srebf1 transcript levels [1] | Lxrβ activation, luciferase activity (Lxrβ) | Lxrβ activational capacity in combination with 22R-HC (Lxrβ) | Lxrα activation, luciferase activity (Lxrα) | Number of Islet+ oculomotor neurons in vivo [2, 3] | Number of TH+ neurons in vivo [2, 3] | Effect of co-injection on the 3β-HCA-induced reduction of Islet+ oculomotor neurons ([2]; co-injected with 3β-HCA) | Competitor concentration with significant difference (p<0.05) from 10 μM 3β,7α-diHCA alone in TR-FRET Lxrβ coactivator assay (Lxrβ-LBD; added to 10 μM 3β,7α-diHCA) [µM] | Competition with 3β,7α-diHCA in TR-FRET Lxrβ coactivator assay (Lxrβ-LBD; increasing concentrations with 3β,7α-diHCA at its most potent concentration) |
| --- | --- | --- | --- | --- | --- | --- | --- | --- | --- | --- |
| CC(CCC[C@@H](C)[C@H]1CC[C@H]2[C@@H]3[C@H](O)C=C4C[C@@H](O)CC[C@]4(C)[C@H]3CC[C@]12C)C(=O)O (stereo partly drawn) [3β,7α-diHCA, 3β,7α-dihydroxycholest-5-en-26-oic acid] | induced FRET in a dose dependent manner to a higher degree than the other acids | increased transcripts levels to a similar degree as 22R-HC | have the ability to activate both Lxrs | No additive effect was observed | have the ability to activate both Lxrs | an increase in the number of Islet+ oculomotor neurons | not of TH+ neurons | this effect was eliminated by co-injection of 3β,7α-diHCA | – | – |
| CC(CCC[C@@H](C)[C@H]1CC[C@H]2[C@@H]3CC=C4C[C@@H](O)CC[C@]4(C)[C@H]3CC[C@]12C)C(=O)O (stereo partly drawn) [3β-HCA, 3β-hydroxycholest-5-en-26-oic acid] | – | induced transcription, but to a lesser extent | activates Lxr | No additive effect was observed | activates Lxr | the number of Islet+ oculomotor neurons was reduced | – | – | ≥ 5 | the effect of 3β,7α-diHCA was reduced to that of the latter acids |
